PubChem BioAssay (NCI)
Several values for one entry are separate records, joined by “and”; a condition that tells them apart may be missing. Equal values may be shown once.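 Method: 48-hour compound exposure of cells in 96-well plates, five concentrations, linear interpolation of endpoints. At the GI50, growth is halved. TGI marks complete inhibition of growth.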

Legend:
Assay in all cases: NCI tumour cell line growth inhibition, 48 h
[1] = tested on: MOLT-4 leukemia
[2] = tested on: A549 NSCLC
[3] = tested on: EKVX NSCLC
[4] = tested on: M14 melanoma
[5] = tested on: HT29 colon
[6] = tested on: SF-295 CNS
[7] = tested on: SN12C renal
[8] = tested on: KM12 colon
[9] = tested on: TK-10 renal
[10] = tested on: HS 578T breast

Row | Compound | TGI [1] | TGI [2] | TGI [3] | TGI [4] | TGI [5] | TGI [6] | TGI [7] | TGI [8] | TGI [9] | GI50 [10] | TGI [10] | GI50 [1] | GI50 [2] | GI50 [3] | GI50 [4] | GI50 [5] | GI50 [6] | GI50 [8] | GI50 [9]
1 | Cn1c2ccccc2c2c3c(c4c5ccccc5n(C)c4c21)C(=O)c1ccccc1C3=O | > 100 µM | > 100 µM | > 100 µM | > 100 µM | > 100 µM | > 100 µM | > 100 µM | > 100 µM | 81.3 µM | – | – | – | – | – | – | – | – | – | –
2 | COC(=O)[C@@]12CCCC(=O)[C@@H]1[C@H]1CCCC[C@H]12 | > 100 µM | > 100 µM | > 100 µM | > 100 µM | > 100 µM | > 100 µM | > 100 µM | > 100 µM | > 100 µM | – | – | – | – | – | – | – | – | – | –
3 | COc1cc(S(=O)(=O)Nc2ccc(C3=NNC(c4ccccc4)C3)cc2)ccc1F (centres undefined) | > 100 µM | > 100 µM | > 100 µM | > 100 µM | > 100 µM | > 100 µM | – | > 100 µM | 54.7 µM | 16.7 µM | 77.8 µM | 48.3 µM | 53.9 µM | 17.8 µM | 27.6 µM | 59.1 µM | 28.5 µM | 18 µM | 13.9 µM
4 | COc1ccc(C2C(C#N)=C(S)N(C3OC(CO)C(O)C(O)C3O)C(c3ccccc3)=C2C(C)=O)cc1 (centres undefined) | > 100 µM | > 100 µM | – | > 100 µM | > 100 µM | > 100 µM | > 100 µM | > 100 µM | > 100 µM | – | > 100 µM | – | – | – | – | – | – | – | –
5 | O=C(N[C@H]1c2ccsc2/C(=N/O)[C@H]1O)C(F)(F)F | > 100 µM | > 100 µM | > 100 µM | > 100 µM | > 100 µM | > 100 µM | > 100 µM | – | > 100 µM | – | > 100 µM | – | – | – | – | – | – | – | –
6 | Cc1sc2ccccc2[n+]1CCC(=O)O | – | > 100 µM | > 100 µM | > 100 µM | > 100 µM | > 100 µM | > 100 µM | > 100 µM | > 100 µM | – | > 100 µM | – | – | – | – | – | – | – | –
7 | Cn1cnc2c(sc3nc4ccccc4n32)c1=N | > 100 µM | > 100 µM | > 100 µM | > 100 µM | > 100 µM | > 100 µM | – | – | > 100 µM | – | > 100 µM | – | – | – | – | – | – | – | –
8 | CC1(Cl)CC2C(CC1Sc1nnnn1-c1ccccc1)C2(C)C (centres undefined) | > 100 µM | > 100 µM | > 100 µM | > 100 µM | > 100 µM | > 100 µM | > 100 µM | > 100 µM | > 100 µM | – | – | – | – | – | – | – | – | – | –
9 | Cc1cc(C)n(CN(Cn2nc(C)cc2C)C2CCCCC2)n1 | – | > 100 µM | 84.5 µM | 36.8 µM | 42.4 µM | > 100 µM | 66.3 µM | 49.2 µM | > 100 µM | – | > 100 µM | – | – | – | – | – | – | – | –
10 | NCCCCNCCCNC(=O)c1nc(-c2csc(CCN)n2)sc1Cl | > 100 µM | > 100 µM | > 100 µM | > 100 µM | > 100 µM | > 100 µM | > 100 µM | > 100 µM | > 100 µM | – | – | – | – | – | – | – | – | – | –
11 | O=C1c2cccc3cccc(c23)C(=O)N1CCCNOCCONCCCN1C(=O)c2cccc3cccc(c23)C1=O | > 100 µM | > 100 µM | > 100 µM | > 100 µM | > 100 µM | > 100 µM | – | > 100 µM | > 100 µM | – | > 100 µM | – | – | – | – | – | – | – | –
12 | CCCCOCn1c(=O)[nH]c(=O)c2cc(Br)ccc21 | > 100 µM | > 100 µM | > 100 µM | > 100 µM | > 100 µM | > 100 µM | > 100 µM | > 100 µM | > 100 µM | – | – | – | – | – | – | – | – | – | –
13 | C[C@]12CC[C@H](O)CC1=CC[C@@H]1[C@@H]2CC[C@]2(C)/C(=N/OCCN3CCCC3)CC[C@@H]12 | 34.8 µM | – | 49.2 µM | – | 10.3 µM | 40.6 µM | 93.6 µM | 26.9 µM | 63.6 µM | – | 83.8 µM | – | – | – | – | – | – | – | –
14 | COc1ccccc1Nc1nc(NNC(=O)Cc2ccccc2)nc(NNC(=O)c2ccncc2)n1 | > 10 µM | > 10 µM | > 10 µM | > 10 µM | > 10 µM | – | > 10 µM | > 10 µM | > 10 µM | – | > 10 µM | – | – | – | – | – | – | – | –
15 | COc1ccc2c(c1)/c(=C/c1ccc(N(C)C)cc1)c1cc(-c3ccccc3)[n+](C)n12 | 4.92 µM | 5.07 µM | 1.42 µM | 1.36 µM | 0.566 µM and 0.982 µM | – | 1.24 µM | 1.71 µM | 5.32 µM and 6.29 µM | – | 0.44 µM | 0.142 µM | – | – | – | 0.0753 µM | – | – | 0.711 µM
16 | COc1cc2c(cc1OC)-c1c3c(cc4c1[C@@H](C2)N(C)CC4)OCO3 | 12 µM | 32.2 µM | 37.3 µM | – | 28.8 µM | 16.7 µM | 39 µM | 45.1 µM | – | – | – | – | – | – | – | – | – | – | –
17 | CC(=O)OC1[C@H]2c3cc4c(cc3CN3CCC(=C[C@@H]1O)C23)OCO4 (some centres undefined) | > 100 µM | > 100 µM | > 100 µM | > 100 µM | > 100 µM | > 100 µM | > 100 µM | > 100 µM | > 100 µM | – | – | – | – | – | – | – | – | – | –
18 | CCc1c(C)c(C#N)c(=S)n(C2OC(CO)C(O)C(O)C2O)c1C (centres undefined) | > 100 µM | > 100 µM | > 100 µM | > 100 µM | > 100 µM | > 100 µM | > 100 µM | > 100 µM | > 100 µM | – | – | – | – | – | – | – | – | – | –
19 | Clc1ccc(N=c2oc3ccccc3cc2-c2nc3ccccc3[nH]2)c(Cl)c1 | > 100 µM | – | > 100 µM | > 100 µM | > 100 µM | > 100 µM | – | > 100 µM | 69.9 µM | – | 78.3 µM | – | – | – | – | – | – | – | –
20 | CCOC(=O)C(/C=N\C(=S)Nc1ccc(OCC)cc1)=C(/O)c1ccccc1 | > 100 µM | > 100 µM | > 100 µM | > 100 µM | > 100 µM | > 100 µM | > 100 µM | > 100 µM | – | – | > 100 µM | – | – | – | – | – | – | – | –
21 | COc1c2cc(C(C)(C)C)cc1Cc1cccc(c1O)Cc1cc(C(C)(C)C)cc(c1OC)Cc1cccc(c1O)Cc1cc(C(C)(C)C)cc(c1OC)Cc1cccc(c1O)C2 | > 100 µM | > 100 µM | > 100 µM | > 100 µM | > 100 µM | > 100 µM | > 100 µM | > 100 µM | – | – | – | – | – | – | – | – | – | – | –
22 | NNC(=S)N1CCN(C(=S)NN)CC1 | > 100 µM | > 100 µM | > 100 µM | > 100 µM | > 100 µM | > 100 µM | > 100 µM | > 100 µM | – | – | > 100 µM | – | – | – | – | – | – | – | –
